Laboratory results reported in PubChem BioAssay (NCI).
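1) Cells in 96-well plates. 2) Compound, 48 h, 5 concentrations. 3) Linear interpolation between surrounding doses. 4) Unreached endpoint = highest concentration. GI50: concentration for 50% inhibition of growth. At the TGI there is no net growth.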

Experiments:
Test in all cases: growth of human tumour cells (NCI), 48 h
LOX IMVI melanoma = system: LOX IMVI melanoma
OVCAR-4 ovarian = system: OVCAR-4 ovarian
NCI-H226 lung = system: NCI-H226 lung
SF-539 CNS = system: SF-539 CNS
SK-MEL-2 melanoma = system: SK-MEL-2 melanoma
NCI/ADR-RES ovarian = system: NCI/ADR-RES ovarian
SK-MEL-28 melanoma = system: SK-MEL-28 melanoma
MCF7 breast = system: MCF7 breast
DU-145 prostate = system: DU-145 prostate
PC-3 prostate = system: PC-3 prostate
NCI-H522 lung = system: NCI-H522 lung
K-562 leukemia = system: K-562 leukemia
NCI-H460 lung = system: NCI-H460 lung
KM12 colon = system: KM12 colon
A549 NSCLC = system: A549 NSCLC
SK-OV-3 ovarian = system: SK-OV-3 ovarian
ACHN renal = system: ACHN renal
HCT-15 colon = system: HCT-15 colon
COLO 205 colon = system: COLO 205 colon
HCT-116 colon = system: HCT-116 colon
OVCAR-5 ovarian = system: OVCAR-5 ovarian
CCRF-CEM leukemia = system: CCRF-CEM leukemia
A498 renal = system: A498 renal
NCI-H23 lung = system: NCI-H23 lung
IGROV1 ovarian = system: IGROV1 ovarian
MDA-MB-231 breast = system: MDA-MB-231 breast
HCC-2998 colon = system: HCC-2998 colon
U251 CNS = system: U251 CNS
HOP-62 NSCLC = system: HOP-62 NSCLC

Q: With COc1ccc(C(=O)/C=C/c2cccc(Cl)c2Cl)cc1S(N)(=O)=O as the compound, how does the GI50 (LOX IMVI melanoma) read?
A: 1.38 µM

Q: What about the TGI (LOX IMVI melanoma) of the same compound?
A: 2.54 µM

Q: What about the GI50 (OVCAR-4 ovarian) of the same compound?
A: 3.97 µM

Q: And the TGI (OVCAR-4 ovarian)?
A: 16.7 µM

Q: And the GI50 (NCI-H226 lung)?
A: 2.3 µM

Q: And the TGI (NCI-H226 lung)?
A: 7.5 µM

Q: And the GI50 (SF-539 CNS)?
A: 1.41 µM

Q: And the TGI (SF-539 CNS)?
A: 2.61 µM

Q: And the GI50 (SK-MEL-2 melanoma)?
A: 11.3 µM

Q: What about the TGI (SK-MEL-2 melanoma) of the same compound?
A: 22.3 µM

Q: What about the GI50 (NCI/ADR-RES ovarian) of the same compound?
A: 1.89 µM

Q: What about the TGI (NCI/ADR-RES ovarian) of the same compound?
A: 4.75 µM

Q: What about the GI50 (SK-MEL-28 melanoma) of the same compound?
A: 11.1 µM

Q: And the TGI (SK-MEL-28 melanoma)?
A: 22 µM

Q: And the GI50 (MCF7 breast)?
A: 3.17 µM

Q: And the TGI (MCF7 breast)?
A: 13.7 µM

Q: And the GI50 (DU-145 prostate)?
A: 2.86 µM

Q: What about the TGI (DU-145 prostate) of the same compound?
A: 10.2 µM

Q: What about the GI50 (PC-3 prostate) of the same compound?
A: 4.49 µM

Q: What about the TGI (PC-3 prostate) of the same compound?
A: 16.6 µM

Q: What about the GI50 (NCI-H522 lung) of the same compound?
A: 3.01 µM

Q: And the TGI (NCI-H522 lung)?
A: 12.6 µM

Q: And the GI50 (K-562 leukemia)?
A: 2.67 µM

Q: And the TGI (K-562 leukemia)?
A: 24.1 µM

Q: What about the GI50 (NCI-H460 lung) of the same compound?
A: 1.89 µM

Q: And the TGI (NCI-H460 lung)?
A: 4.94 µM

Q: What about the GI50 (KM12 colon) of the same compound?
A: 1.99 µM

Q: And the TGI (KM12 colon)?
A: 4.8 µM

Q: What about the GI50 (A549 NSCLC) of the same compound?
A: 2.52 µM

Q: And the TGI (A549 NSCLC)?
A: 9.42 µM

Q: And the GI50 (SK-OV-3 ovarian)?
A: 12.4 µM

Q: What about the TGI (SK-OV-3 ovarian) of the same compound?
A: 23.8 µM

Q: What about the GI50 (ACHN renal) of the same compound?
A: 1.77 µM

Q: And the TGI (ACHN renal)?
A: 3.9 µM

Q: And the GI50 (HCT-15 colon)?
A: 1.29 µM

Q: And the TGI (HCT-15 colon)?
A: 2.94 µM

Q: What about the GI50 (COLO 205 colon) of the same compound?
A: 2.75 µM

Q: What about the TGI (COLO 205 colon) of the same compound?
A: 10.3 µM

Q: And the GI50 (HCT-116 colon)?
A: 1.31 µM

Q: And the TGI (HCT-116 colon)?
A: 2.72 µM

Q: What about the GI50 (OVCAR-5 ovarian) of the same compound?
A: 1.91 µM

Q: What about the TGI (OVCAR-5 ovarian) of the same compound?
A: 5.78 µM

Q: What about the GI50 (CCRF-CEM leukemia) of the same compound?
A: 5.74 µM

Q: And the TGI (CCRF-CEM leukemia)?
A: 33.3 µM

Q: And the GI50 (A498 renal)?
A: 9.6 µM

Q: And the TGI (A498 renal)?
A: 20 µM

Q: What about the GI50 (NCI-H23 lung) of the same compound?
A: 3.8 µM

Q: What about the TGI (NCI-H23 lung) of the same compound?
A: 14.3 µM

Q: What about the GI50 (IGROV1 ovarian) of the same compound?
A: 3.24 µM

Q: And the TGI (IGROV1 ovarian)?
A: 12.4 µM

Q: And the GI50 (MDA-MB-231 breast)?
A: 2.57 µM

Q: What about the TGI (MDA-MB-231 breast) of the same compound?
A: 7.61 µM

Q: What about the GI50 (HCC-2998 colon) of the same compound?
A: 4.21 µM

Q: What about the TGI (HCC-2998 colon) of the same compound?
A: 15.5 µM

Q: And the GI50 (U251 CNS)?
A: 1.31 µM

Q: What about the TGI (U251 CNS) of the same compound?
A: 2.48 µM

Q: And the GI50 (HOP-62 NSCLC)?
A: 2.3 µM

Q: And the TGI (HOP-62 NSCLC)?
A: 7.12 µM
